From the NIST ThermoML archive (doi:10.1016/j.jct.2015.03.001)
± gives the expanded uncertainty stated by the source.

Columns and labels:
[1] = refractive index (Na D-line) (dimensionless); xn = mol fraction of the nth substance listed; settings: 99 kPa, Liquid, Abbe refractometer
[2] = relative permittivity at various frequencies (dimensionless); xn = mol fraction of the nth substance listed; settings: 99 kPa, Liquid, Frequency=2 MHz, Parallel plate capacitor

CC(C)(C)Cl [2-chloro-2-methylpropane] + CCCCCCC
Settings | refractive index, 283.15 K | refractive index, 298.15 K | refractive index, 313.15 K | relative permittivity, 283.15 K | relative permittivity, 298.15 K | relative permittivity, 313.15 K
[1], x2 = 0 | 1.39115 ± 0.00031 | 1.38225 ± 0.00031 | 1.37312 ± 0.00031 | – | – | –
[1], x2 = 0.0511 | 1.39054 ± 0.00031 | 1.38172 ± 0.00031 | 1.37267 ± 0.00031 | – | – | –
[1], x2 = 0.0962 | 1.39025 ± 0.00031 | 1.38149 ± 0.00031 | 1.37249 ± 0.00031 | – | – | –
[1], x2 = 0.1985 | 1.38996 ± 0.00031 | 1.3813 ± 0.00031 | 1.37238 ± 0.00031 | – | – | –
[1], x2 = 0.2955 | 1.38988 ± 0.00031 | 1.38132 ± 0.00031 | 1.37254 ± 0.00031 | – | – | –
[1], x2 = 0.3985 | 1.39001 ± 0.00031 | 1.38159 ± 0.00031 | 1.37294 ± 0.00031 | – | – | –
[1], x2 = 0.4985 | 1.39024 ± 0.00031 | 1.38196 ± 0.00031 | 1.37347 ± 0.00031 | – | – | –
[1], x2 = 0.5996 | 1.39059 ± 0.00031 | 1.38244 ± 0.00031 | 1.37414 ± 0.00031 | – | – | –
[1], x2 = 0.7039 | 1.39105 ± 0.00031 | 1.38306 ± 0.00031 | 1.37492 ± 0.00031 | – | – | –
[1], x2 = 0.8032 | 1.39164 ± 0.00031 | 1.38375 ± 0.00031 | 1.37573 ± 0.00031 | – | – | –
[1], x2 = 0.9039 | 1.39225 ± 0.00031 | 1.38447 ± 0.00031 | 1.37653 ± 0.00031 | – | – | –
[1], x2 = 0.9618 | 1.39267 ± 0.00031 | 1.38492 ± 0.00031 | 1.37703 ± 0.00031 | – | – | –
[2], x2 = 0 | – | – | – | 10.429 ± 0.1 | 9.67 ± 0.097 | 8.952 ± 0.09
[2], x2 = 0.0506 | – | – | – | 9.787 ± 0.098 | 9.1 ± 0.091 | 8.449 ± 0.085
[2], x2 = 0.1035 | – | – | – | 9.109 ± 0.091 | 8.485 ± 0.085 | 7.907 ± 0.079
[2], x2 = 0.2006 | – | – | – | 7.895 ± 0.079 | 7.373 ± 0.074 | 6.892 ± 0.069
[2], x2 = 0.3012 | – | – | – | 6.721 ± 0.067 | 6.293 ± 0.063 | 5.932 ± 0.059
[2], x2 = 0.3976 | – | – | – | 5.754 ± 0.058 | 5.41 ± 0.054 | 5.118 ± 0.051
[2], x2 = 0.504 | – | – | – | 4.827 ± 0.048 | 4.566 ± 0.046 | 4.34 ± 0.043
[2], x2 = 0.6015 | – | – | – | 4.103 ± 0.041 | 3.914 ± 0.039 | 3.747 ± 0.037
[2], x2 = 0.6988 | – | – | – | 3.472 ± 0.035 | 3.341 ± 0.033 | 3.226 ± 0.032
[2], x2 = 0.8014 | – | – | – | 2.905 ± 0.029 | 2.819 ± 0.028 | 2.749 ± 0.028
[2], x2 = 0.9027 | – | – | – | 2.407 ± 0.024 | 2.359 ± 0.024 | 2.322 ± 0.023
[2], x2 = 0.9444 | – | – | – | 2.209 ± 0.022 | 2.173 ± 0.022 | 2.144 ± 0.021

CCCCCl [1-chlorobutane] + CCCCCCC
Settings | refractive index, 283.15 K | refractive index, 298.15 K | refractive index, 313.15 K | relative permittivity, 283.15 K | relative permittivity, 298.15 K | relative permittivity, 313.15 K
[1], x2 = 0 | 1.4075 ± 0.00031 | 1.3995 ± 0.00031 | 1.39131 ± 0.00031 | – | – | –
[1], x2 = 0.0503 | 1.40636 ± 0.00031 | 1.39837 ± 0.00031 | 1.39019 ± 0.00031 | – | – | –
[1], x2 = 0.1023 | 1.40522 ± 0.00031 | 1.39724 ± 0.00031 | 1.38907 ± 0.00031 | – | – | –
[1], x2 = 0.201 | 1.40318 ± 0.00031 | 1.39522 ± 0.00031 | 1.38708 ± 0.00031 | – | – | –
[1], x2 = 0.3012 | 1.40132 ± 0.00031 | 1.39338 ± 0.00031 | 1.38527 ± 0.00031 | – | – | –
[1], x2 = 0.4003 | 1.39966 ± 0.00031 | 1.39175 ± 0.00031 | 1.38367 ± 0.00031 | – | – | –
[1], x2 = 0.4985 | 1.3982 ± 0.00031 | 1.39033 ± 0.00031 | 1.38227 ± 0.00031 | – | – | –
[1], x2 = 0.5963 | 1.39694 ± 0.00031 | 1.38909 ± 0.00031 | 1.38108 ± 0.00031 | – | – | –
[1], x2 = 0.7037 | 1.39573 ± 0.00031 | 1.38793 ± 0.00031 | 1.37996 ± 0.00031 | – | – | –
[1], x2 = 0.82 | 1.39458 ± 0.00031 | 1.38682 ± 0.00031 | 1.3789 ± 0.00031 | – | – | –
[1], x2 = 0.9094 | 1.39373 ± 0.00031 | 1.386 ± 0.00031 | 1.37811 ± 0.00031 | – | – | –
[1], x2 = 0.949 | 1.39337 ± 0.00031 | 1.38565 ± 0.00031 | 1.37778 ± 0.00031 | – | – | –
[2], x2 = 0 | – | – | – | 7.552 ± 0.076 | 7.157 ± 0.072 | 6.757 ± 0.068
[2], x2 = 0.0484 | – | – | – | 7.201 ± 0.072 | 6.84 ± 0.068 | 6.47 ± 0.065
[2], x2 = 0.101 | – | – | – | 6.808 ± 0.068 | 6.475 ± 0.065 | 6.132 ± 0.061
[2], x2 = 0.1965 | – | – | – | 6.051 ± 0.061 | 5.77 ± 0.058 | 5.492 ± 0.055
[2], x2 = 0.2708 | – | – | – | 5.486 ± 0.055 | 5.243 ± 0.052 | 5.005 ± 0.05
[2], x2 = 0.4005 | – | – | – | 4.601 ± 0.046 | 4.417 ± 0.044 | 4.237 ± 0.042
[2], x2 = 0.5038 | – | – | – | 3.999 ± 0.04 | 3.855 ± 0.039 | 3.715 ± 0.037
[2], x2 = 0.5995 | – | – | – | 3.52 ± 0.035 | 3.404 ± 0.034 | 3.299 ± 0.033
[2], x2 = 0.6978 | – | – | – | 3.089 ± 0.031 | 3.001 ± 0.03 | 2.921 ± 0.029
[2], x2 = 0.805 | – | – | – | 2.665 ± 0.027 | 2.608 ± 0.026 | 2.545 ± 0.025
[2], x2 = 0.897 | – | – | – | 2.327 ± 0.023 | 2.287 ± 0.023 | 2.247 ± 0.022
[2], x2 = 0.9475 | – | – | – | 2.138 ± 0.021 | 2.112 ± 0.021 | 2.079 ± 0.021

CC(C)(C)Cl [2-chloro-2-methylpropane] + CCCCCC
Settings | refractive index, 283.15 K | refractive index, 298.15 K | refractive index, 313.15 K | relative permittivity, 283.15 K | relative permittivity, 298.15 K | relative permittivity, 313.15 K
[1], x2 = 0 | 1.39115 ± 0.00031 | 1.38225 ± 0.00031 | 1.37312 ± 0.00031 | – | – | –
[1], x2 = 0.048 | 1.39005 ± 0.00031 | 1.38118 ± 0.00031 | 1.37209 ± 0.00031 | – | – | –
[1], x2 = 0.0978 | 1.38908 ± 0.00031 | 1.38022 ± 0.00031 | 1.37118 ± 0.00031 | – | – | –
[1], x2 = 0.1998 | 1.38741 ± 0.00031 | 1.3786 ± 0.00031 | 1.36961 ± 0.00031 | – | – | –
[1], x2 = 0.3018 | 1.38592 ± 0.00031 | 1.37722 ± 0.00031 | 1.36829 ± 0.00031 | – | – | –
[1], x2 = 0.405 | 1.38463 ± 0.00031 | 1.37598 ± 0.00031 | 1.36716 ± 0.00031 | – | – | –
[1], x2 = 0.5059 | 1.38354 ± 0.00031 | 1.37491 ± 0.00031 | 1.36616 ± 0.00031 | – | – | –
[1], x2 = 0.6043 | 1.38258 ± 0.00031 | 1.37407 ± 0.00031 | 1.3654 ± 0.00031 | – | – | –
[1], x2 = 0.7077 | 1.38181 ± 0.00031 | 1.37335 ± 0.00031 | 1.36477 ± 0.00031 | – | – | –
[1], x2 = 0.806 | 1.38122 ± 0.00031 | 1.37282 ± 0.00031 | 1.36433 ± 0.00031 | – | – | –
[1], x2 = 0.9095 | 1.38081 ± 0.00031 | 1.37249 ± 0.00031 | 1.36409 ± 0.00031 | – | – | –
[1], x2 = 0.95 | 1.38066 ± 0.00031 | 1.37236 ± 0.00031 | 1.36401 ± 0.00031 | – | – | –
[2], x2 = 0 | – | – | – | 10.429 ± 0.1 | 9.67 ± 0.097 | 8.952 ± 0.09
[2], x2 = 0.0467 | – | – | – | 9.841 ± 0.098 | 9.132 ± 0.091 | 8.468 ± 0.085
[2], x2 = 0.099 | – | – | – | 9.191 ± 0.092 | 8.543 ± 0.085 | 7.946 ± 0.079
[2], x2 = 0.2084 | – | – | – | 7.892 ± 0.079 | 7.37 ± 0.074 | 6.883 ± 0.069
[2], x2 = 0.2972 | – | – | – | 6.892 ± 0.069 | 6.468 ± 0.065 | 6.073 ± 0.061
[2], x2 = 0.399 | – | – | – | 5.897 ± 0.059 | 5.552 ± 0.056 | 5.239 ± 0.052
[2], x2 = 0.4982 | – | – | – | 5.016 ± 0.05 | 4.749 ± 0.048 | 4.514 ± 0.045
[2], x2 = 0.6015 | – | – | – | 4.212 ± 0.042 | 4.01 ± 0.04 | 3.842 ± 0.038
[2], x2 = 0.7009 | – | – | – | 3.543 ± 0.035 | 3.398 ± 0.034 | 3.283 ± 0.033
[2], x2 = 0.8046 | – | – | – | 2.928 ± 0.029 | 2.833 ± 0.028 | 2.749 ± 0.028
[2], x2 = 0.8999 | – | – | – | 2.417 ± 0.024 | 2.362 ± 0.024 | 2.308 ± 0.023
[2], x2 = 0.9502 | – | – | – | 2.149 ± 0.022 | 2.116 ± 0.021 | 2.08 ± 0.021
